Assay results published in patent US20170304281A1, “METHODS OF USING POTASSIUM CHANNEL INHIBITORS (BLOCKERS) FOR FLUID RESUSCITATION” (Loyola University of Chicago, priority 2016, published 2017).
Like-named read-outs stand apart in the source and are kept apart here.

Key:
[1] = rat, in vivo
Description: After intravenous injection of 2.5 mg/kg linopirdine, a half-life of 0.6 hours has been determined in rats. Thus, the short half-life would indicate that linopirdine is a drug that is easily controllable if adverse effects were to occur.

[2] = oral administration in humans; cited from earlier work
normal rats = test: Effect of intravenous bolus doses on blood pressure in normal anesthetized rats (sham, no hemorrhage); type: in vivo, rat; details: for peak mean arterial blood pressure (MAP): normal rats n=3, baseline MAP 92±2.5 mmHg, mean±SD
Description: Initial phases of the investigation entailed the administration of linopirdine to anesthetized male Sprague-Dawley rats to determine its effect on blood pressure. Hemodynamics and fluid requirements were continuously monitored.
FIG. 1 contains a plot representing the effect of linopirdine on blood pressure in normal rats (sham—no hemorrhage, n=3) that received five increasing intravenous (i.v.) bolus doses of linopirdine (0.1-6 mg per kg of body weight) in 0.5 mL normal saline (NS) at fifteen minute intervals. […] Data are mean±SD.
FIG. 2 contains a plot representing the effect of the Kv7 channel activator retigabine on blood pressure when administered to normal rats (sham—no hemorrhage, n=3) by intravenous injection in increasing dosages of 0.1 mg/kg, 0.5 mg/kg, 1 mg/kg, 3 mg/kg, 6 mg/kg, and 12 mg/kg in 0.5 mL normal saline. […] Data are mean±SD.

[3] = system: rats hemorrhaged to induce hemorrhagic shock; test: Fluid resuscitation after hemorrhagic shock, resuscitation fluid (normal saline) supplemented with drug; type: in vivo, rat; details: for fluid requirements to resuscitate to a MAP of 70 mmHg: mean±SD
Description: Further phases of the investigation entailed the use of anesthetized male Sprague-Dawley rats that were hemorrhaged to a mean arterial blood pressure (MAP) of 25 mmHg for thirty minutes to induce hemorrhagic shock, followed by fluid resuscitation with normal saline to a MAP of 70 mmHg until t=75 minutes. Hemodynamics and fluid requirements were continuously monitored. […] At the end of the hemorrhagic shock period (t=30 min), animals were resuscitated with normal saline alone (“vehicle”; n=4) or normal saline supplemented with 1.25 (n=4), 6.25 (n=3), 12.5 (n=4), or 200 (n=6) […] of linopirdine. Plot “A” represents the mean arterial blood pressure (MAP, mmHg), plot “B” represents the hemorrhage volume in percent of total blood volume, and plot “C” represents the resuscitation fluid requirements to maintain blood pressure at 70 mmHg. Fluid requirements to resuscitate to a MAP of 70 mmHg were: 73±12 mL/kg with NS, 72±24 mL/kg with NS supplemented with 1.25 μg/mL linopirdine and 61±20 mL/kg, 36±9 mL/kg (p<0.05 vs. NS alone) and 31±9 mL/kg (p<0.05 vs. NS alone) with NS supplemented with 6.25 μg/mL, 12.5 μg/mL and 200 μg/mL linopirdine, respectively. […] Data are mean±SD. *:p<0.05 vs. normal saline alone. Two-way ANOVA/Bonferroni post-hoc multiple comparison test.

[4] = phase 1 and phase 2 clinical trials as cognition-enhancing drug in Alzheimer's disease; cited from earlier work
[5] = intravenous injection of 2.5 mg/kg in rats; cited from earlier work
[6] = system: rats hemorrhaged to induce hemorrhagic shock; test: Fluid resuscitation after hemorrhagic shock, intravenous bolus injection at end of shock period; type: in vivo, rat; details: for fluid requirements to resuscitate to a MAP of 70 mmHg: mean±SD
Description: Further phases of the investigation entailed the use of anesthetized male Sprague-Dawley rats that were hemorrhaged to a mean arterial blood pressure (MAP) of 25 mmHg for thirty minutes to induce hemorrhagic shock, followed by fluid resuscitation with normal saline to a MAP of 70 mmHg until t=75 minutes. Hemodynamics and fluid requirements were continuously monitored.
FIG. 3 contains three plots evidencing the ability of linopirdine to dose-dependently reduce fluid requirements to maintain hemodynamics during resuscitation from induced hemorrhagic shock. At the end of the hemorrhagic shock period (t=30 min), normal saline alone (“vehicle”; n=4), 1 mg/kg (n=5), 3 mg/kg (n=3), or 6 mg/kg (n=3) linopirdine in 0.5 mL normal saline were bolus injected intravenously. Plot “A” represents the mean arterial blood pressure (MAP, mmHg), plot “B” represents the hemorrhage volume in percent of total blood volume, and plot “C” represents the resuscitation fluid requirements to maintain blood pressure at 70 mmHg. Fluid requirements to resuscitate to a MAP of 70 mmHg were: 65±34 mL/kg with normal saline alone and 57±13 mL/kg, 22±8 mL/kg (p<0.05 vs. normal saline alone) and 22±11 mL/kg (p<0.05 vs. normal saline alone) with 1 mg/kg, 3 mg/kg, and 6 mg/kg linopirdine, respectively. The effect of linopirdine to reduce fluid requirements to maintain hemodynamics during resuscitation from hemorrhagic shock appeared to be saturated at a bolus dose of about 3 mg/kg linopirdine. As compared with normal saline-treated animals, a bolus injection of linopirdine (3 mg/kg and 6 mg/kg) reduced fluid resuscitation requirements by 70%. Data are mean±SD. *:p<0.05 vs. normal saline alone. Two-way ANOVA/Bonferroni post-hoc multiple comparison test.
At the end of the hemorrhagic shock period (t=30 min), normal saline alone (“vehicle”; n=3) or 1 mg/kg (n=3) of XE991 in 0.5 mL normal saline were injected intravenously. Plot “A” represents the mean arterial blood pressure (MAP, mmHg), plot “B” represents the hemorrhage volume in percent of total blood volume, and plot “C” represents the resuscitation fluid requirements to maintain blood pressure at 70 mmHg. […] Data are mean±SD. *:p<0.05 vs. normal saline alone. Two-way ANOVA/Bonferroni post-hoc multiple comparison test.

Kv7 channel = details: XE991 vs linopirdine; cited from earlier work

For `O=C1N(c2ccccc2)c2ccccc2C1(Cc1ccncc1)Cc1ccncc1` [linopirdine], the “toxicity associated with treatment” value [1] is listed as “No toxicity”, the half-life [2] is listed as 24 to 192 min and the “transient increase of mean arterial blood pressure” value (normal rats; 6 mg/kg i.v. injection, normal rats) is listed as “approximately 10%”. For the same compound, the “reversal of retigabine-induced hypotension” value (normal rats; 6 mg/kg linopirdine injected after last (12 mg/kg) dosage of retigabine, normal rats) was “able to be reversed”, the “time for MAP to return to baseline after bolus” value (normal rats; 0.1-6 mg/kg i.v. bolus doses, normal rats) was “ten to fifteen” and the “effect on systemic blood pressures” value (normal rats; high i.v. bolus dose 6 mg/kg and total i.v. dose 10.6 mg/kg within one hour, normotensive rats) was “only minimal and short-lived increases”. For the same compound, the “peak mean arterial blood pressure (MAP)” value (normal rats; linopirdine 0.1 mg/kg i.v. bolus) was 92±2 mmHg, the “peak mean arterial blood pressure (MAP)” value (normal rats; linopirdine 0.5 mg/kg i.v. bolus) was 93±2 mmHg and the “peak mean arterial blood pressure (MAP)” value (normal rats; linopirdine 1 mg/kg i.v. bolus) was 95±4 mmHg. The “peak mean arterial blood pressure (MAP)” value (normal rats; linopirdine 3 mg/kg i.v. bolus) was 100±2 mmHg, the “peak mean arterial blood pressure (MAP)” value (normal rats; linopirdine 6 mg/kg i.v. bolus) was 105±0.6 mmHg and the “fluid requirements to resuscitate to a MAP of 70 mmHg” value (“fluid requirements to resuscitate” below) ([3]; NS supplemented with 1.25 μg/mL linopirdine, n=4, NS alone 73±12 mL/kg) was 72 ± 24 mL/kg. For the same compound, the “fluid requirements to resuscitate” value ([3]; NS supplemented with 6.25 μg/mL linopirdine, n=3, NS alone 73±12 mL/kg) was 61 ± 20 mL/kg, the “fluid requirements to resuscitate” value ([3]; NS supplemented with 12.5 μg/mL linopirdine, n=4, p<0.05 vs. NS alone (73±12 mL/kg), cumulative dose 0.446 mg/kg) was 36 ± 9 mL/kg and the “fluid requirements to resuscitate” value ([3]; NS supplemented with 200 μg/mL linopirdine, n=6, p<0.05 vs. NS alone (73±12 mL/kg)) was 31 ± 9 mL/kg. For the same compound, the “concentration in normal saline at which the effect was saturated” value ([3]; supplemented resuscitation fluid, hemorrhagic shock rats) was 12.5 µg/mL, the “adverse effects in clinical trials” value [4] was “no relevant adverse effects” and the half-life [5] was 36 min. The “fluid requirements to resuscitate” value ([6]; 1 mg/kg i.v. bolus at t=30 min, n=5, normal saline alone 65±34 mL/kg) was 57 ± 13 mL/kg, the “fluid requirements to resuscitate” value ([6]; 3 mg/kg i.v. bolus at t=30 min, n=3, p<0.05 vs. normal saline alone (65±34 mL/kg)) was 22 ± 8 mL/kg and the “fluid requirements to resuscitate” value ([6]; 6 mg/kg i.v. bolus at t=30 min, n=3, p<0.05 vs. normal saline alone (65±34 mL/kg)) was 22 ± 11 mL/kg. The “reduction of fluid resuscitation requirements compared with normal saline-treated animals” value ([6]; bolus injection 3 mg/kg and 6 mg/kg) was 70%, the “bolus dose at which the fluid-sparing effect appeared saturated” value ([6]; i.v. bolus, hemorrhagic shock rats) was “about 3 mg/kg” and the “reduction of resuscitation fluid requirements at saturating dose” value ([6]; single dose of three milligrams per kilogram at beginning of fluid resuscitation) was 65%.

For `O=C1c2ccccc2C(Cc2ccncc2)(Cc2ccncc2)c2ccccc21` [XE991], the “potency for channel blockade relative to linopirdine” value (Kv7 channel) is given as “five to ten-fold higher potency” and the “effect on resuscitation fluid requirements relative to linopirdine” value ([6]; XE991 1 mg/kg i.v. bolus, n=3, compared with linopirdine 3 mg/kg and 6 mg/kg) is given as “comparable effect”.
